Literature values, collected in PubChem BioAssay AID1259409 (Chemical Carcinogenesis Research Information System (CCRIS), 2018).

System: rodent chemically induced tumor inhibition, incidence and multiplicity
Assay: CCRIS tumor inhibitor studies

Structure (SMILES): COc1c(C)c(O)c(C(C)=O)c(O)c1Cc1c(O)c(CC=C(C)C)c(O)c(C(C)=O)c1O
- tumour outcome (control, treated, inhibition, significance) (Carcinogen: 7,12-DIMETHYLBENZ[A]ANTHRACENE, 57-97-6, Dose [Inhibitor]: 0, 162 NMOL IN 100 µL ACETONE 2/WK FOR 20 WK BEGINNING 1 WK POST CARCINOGEN DOSE (STUDY DURATION: 21 WK), Route [Inhibitor]: DERMAL, Species: MOUSE, Strain/Sex: ICR/FEMALE, Target Tissue: Type of Lesion: SKIN: TUMOR, Dose [Carcinogen]: 100 UG ONCE, Promoter: 12-O-TETRADECANOYLPHORBOL-13-ACETATE, 16561-29-8): 40%, 36%, 10%, not significant
- tumour outcome (control, treated, inhibition, significance) (Carcinogen: 7,12-DIMETHYLBENZ[A]ANTHRACENE, 57-97-6, Dose [Inhibitor]: 0, 1620 NMOL IN 100 µL ACETONE 2/WK FOR 20 WK BEGINNING POST CARCINOGEN DOSE (STUDY DURATION: 21 WK), Route [Inhibitor]: DERMAL, Species: MOUSE, Strain/Sex: ICR/FEMALE, Target Tissue: Type of Lesion: SKIN: TUMOR, Dose [Carcinogen]: 100 UG ONCE, Promoter: 12-O-TETRADECANOYLPHORBOL-13-ACETATE, 16561-29-8): 52%, 0%, 100%, not calculated

Structure (SMILES): CC1(C)O[C@@H]2C[C@H]3[C@@H]4CCC5=CC(=O)C=C[C@]5(C)[C@@]4(F)[C@@H](O)C[C@]3(C)[C@]2(C(=O)CO)O1
- tumour outcome (control, treated, inhibition, significance) (Carcinogen: UVB IRRADIATION, Dose [Inhibitor]: 14.4 NMOL IN 0.1 ML ACETONE 5/WK FOR 4 WK IMMEDIATELY AFTER EACH UVB EXPOSURE FOLLOWED BY 48 WK OBSERVATION PERIOD (STUD, Route [Inhibitor]: DERMAL, Species: MOUSE, Strain/Sex: SKH/HRL/FEMALE, Target Tissue: Type of Lesion: SKIN: TUMOR, Dose [Carcinogen]: 0.3 KJ/SQM ON FIRST DAY, 0.6 KJ/SQM ON SECOND DAY AND ALL SUBSEQUENT DAYS 0.9 KJ/SQM ADMINISTERED 5 D/WK FOR 4 WK, Promoter: NONE USED): 8/27 (30%), 4/27 (15%), 50%, not significant

Structure (SMILES): O=C(O)[C@H](O)[C@@H](O)[C@H](O)[C@H](O)CO
- tumour outcome (control, treated, inhibition, significance) (Carcinogen: 1,2-DIMETHYLHYDRAZINE DIHYDROCHLORIDE, 306-37-6, Dose [Inhibitor]: 0, 1% IN DIET FOR 8 MO BEGINNING 2 WK POST CARCINOGEN (STUDY DURATION: 8 MO, 2 WK), Route [Inhibitor]: ORAL, Species: RAT, Strain/Sex: F344/MALE, Target Tissue: Type of Lesion: COLON: TUMOR, Dose [Carcinogen]: 200 MG/KG IN 0.9% NACL ONCE): 15/27 (56%), 17/28 (61%), -9%, not significant
- tumour outcome (control, treated, inhibition, significance) (Carcinogen: 1,2-DIMETHYLHYDRAZINE DIHYDROCHLORIDE, 306-37-6, Dose [Inhibitor]: 0, 2% IN DIET FOR 8 MO BEGINNING 2 WK POST CARCINOGEN (STUDY DURATION: 8 MO, 2 WK), Route [Inhibitor]: ORAL, Species: RAT, Strain/Sex: F344/MALE, Target Tissue: Type of Lesion: COLON: TUMOR, Dose [Carcinogen]: 200 MG/KG IN 0.9% NACL ONCE): 15/27 (56%), 7/17 (41%), 27%, not significant

Structure (SMILES): C/C=C/C1=CC2=CC3=C(C(=O)CCCCCCC)C(=O)O[C@@]3(C)C(=O)C2=CO1
- tumour outcome (control, treated, inhibition, significance) (Carcinogen: 7,12-DIMETHYLBENZ[A]ANTHRACENE, 57-97-6, Dose [Inhibitor]: 0, 2 UMOL 2/WK FOR 18 WK APPLIED 30 MIN PRIOR TO EACH PROMOTER DOSE BEGINNING 1 WK POST CARCINOGEN DOSE (STUDY DURATION:, Route [Inhibitor]: DERMAL, Species: MOUSE, Strain/Sex: ICR/FEMALE, Target Tissue: Type of Lesion: SKIN: PAPILLOMA, Dose [Carcinogen]: 50 UG ONCE, Promoter: 12-O-TETRADECANOYLPHORBOL-13-ACETATE, 16561-29-8): 100%, 7%, 93%, not calculated
